Measured values published in PMC6749586, “Design, Synthesis, and Anticancer Effect Studies of Iridium(III) Polypyridyl Complexes against SGC-7901 Cells” (Molecules, 2019).

tested on: SGC-7901 cells; experiment: ATP quantification assay (luciferin-luciferase); type: cell-based, human; details: 4.0 µM 1, 15.0 µM 2, 15.0 µM 3, 24 h; control 951.46 nM
Method: Approximately 2.4 × 10^6 cells were taken, evenly planted in a 6-well plate, and incubated overnight in an incubator at 37 °C. On the next day, the cells were exposed to different concentrations of compounds for 24 h in triplicate. Following exposure, 200 μL of cell lysis buffer was added to each well of the cell plate and lysed on ice. To measure ATP, 20 μL of the lysed cell suspension was added to 100 μL of a luciferin–luciferase reagent. Light emission was measured by a luminometer. ATP levels were determined using a standard curve.

Point of comparison: `F[P-](F)(F)(F)(F)F.O=[N+]([O-])c1cc2ccc[n+]3c2c2c1ccc[n+]2[Ir-5]312([c]3ccccc3-c3cccc[n+]31)[c]1ccccc1-c1cccc[n+]12` [Complex 1, [Ir(Hppy)2(NP)]PF6], “Intracellular ATP amount” value 913.91 nM. Against it:
- F[P-](F)(F)(F)(F)F.Nc1c(N)c2cccnc2c2ncccc12.[Ir+3].[c-]1ccccc1-c1ccccn1.[c-]1ccccc1-c1ccccn1 [Complex 3, [Ir(Hppy)2(DAP)]PF6] — within 1.5-fold, 945.02 nM
- F[P-](F)(F)(F)(F)F.Nc1c([N+](=O)[O-])c2cccnc2c2ncccc12.[Ir+3].[c-]1ccccc1-c1ccccn1.[c-]1ccccc1-c1ccccn1 [Complex 2, [Ir(Hppy)2(NAP)]PF6] — within 1.5-fold, 880.48 nM
